Series [1] is described as follows: Apparent permeability across apical to basolateral side in human Caco2 cells at 10 uM after 1 hr by LC-MS method. Format: ADME, cell-based. As to conditions: Caco-2.
A short description of series [2]: Apparent permeability across apical to basolateral side in human Caco2 cells at 1 uM after 1 hr by LC-MS method. In kind it is ADME, cell-based. As to conditions: Caco-2.
A short description of series [3]: Apparent permeability across basolateral to apical side in human Caco2 cells at 10 uM after 2 hrs […] by LC-MS method. Format: ADME, cell-based. As to conditions: Caco-2. (In general: Caco-2 monolayers are a common model of the intestinal barrier.)
Series [4] is described as follows: Apparent permeability across basolateral to apical side in human Caco2 cells at 1 uM after 2 hrs by LC-MS method. In kind it is ADME, cell-based. The settings on record: Caco-2.
Series [5] is described as follows: Lipophilicity, LogP of the compound at pH 7.4 by reverse-phase HPLC. In kind it is physicochemical. The settings on record: buffer.
Series [6] deals with T1, Prostaglandin G/H synthase 1 (Ovis aries, UniProt P05979).
T1 sequence (P05979 whole entry): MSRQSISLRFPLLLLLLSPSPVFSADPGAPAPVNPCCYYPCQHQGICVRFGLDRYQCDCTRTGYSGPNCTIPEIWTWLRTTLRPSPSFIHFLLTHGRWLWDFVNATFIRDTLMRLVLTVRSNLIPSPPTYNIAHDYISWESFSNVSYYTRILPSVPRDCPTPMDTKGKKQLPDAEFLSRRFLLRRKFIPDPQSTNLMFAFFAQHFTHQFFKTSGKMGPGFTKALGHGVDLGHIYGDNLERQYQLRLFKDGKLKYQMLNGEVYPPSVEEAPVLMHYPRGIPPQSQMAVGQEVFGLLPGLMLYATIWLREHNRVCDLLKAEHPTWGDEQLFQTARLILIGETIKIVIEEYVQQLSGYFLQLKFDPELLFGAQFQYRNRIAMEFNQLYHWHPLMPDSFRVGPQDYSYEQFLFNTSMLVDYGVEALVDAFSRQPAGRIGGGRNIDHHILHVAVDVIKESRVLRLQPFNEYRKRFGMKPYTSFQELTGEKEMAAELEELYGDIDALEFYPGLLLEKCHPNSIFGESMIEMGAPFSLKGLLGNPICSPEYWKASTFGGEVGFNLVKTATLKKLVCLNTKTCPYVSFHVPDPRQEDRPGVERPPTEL
Kind of series: Inhibition of ovine COX-1 using arachidonic acid after 5 mins by colorimetric method.

Four compounds from ChEMBL document CHEMBL3627656 (Bioorg Med Chem, 2015) can be followed below.

Molecules are shown by their SMILES.

By Papp A→B is commonly meant how fast a substance crosses the layer from the apical side. What is called Papp B→A is the apparent permeability from the basolateral to the apical side of a cell layer. As a reminder, the logP is a log measure of how a compound divides between an organic and an aqueous phase. Low readings indicate a more hydrophilic compound, high ones a more lipophilic compound. One may read the IC50 as the concentration that gives 50% inhibition. A high value points to a need for much substance.

Regarding `COc1ccccc1Oc1cc([N+](=O)[O-])ccc1NS(C)(=O)=O`, the Papp A→B at 1 h, 10 µM in series [1] is 38.1 ×10⁻⁶ cm/s. For the same compound, the Papp A→B at 1 h, 1 µM in series [2] worked out at 11.2 ×10⁻⁶ cm/s. Further, the apparent permeability from basolateral to apical (Papp B→A) at 2 h, 10 µM in series [3] is 25.4 ×10⁻⁶ cm/s. In series [4], the apparent permeability from basolateral to apical (Papp B→A) at 2 h, 1 µM amounted to 8.5 ×10⁻⁶ cm/s. In series [5], this compound displayed a logP of 1.26. This compound came in with a half-maximal inhibitory concentration (IC50) in series [6] of more than 100 µM.
For the compound `COc1cccc(Oc2cc([N+](=O)[O-])ccc2NS(C)(=O)=O)c1`, the Papp A→B at 1 h, 10 µM in series [1] was 52.3 ×10⁻⁶ cm/s. Besides, the Papp A→B at 1 h, 1 µM in series [2] is 42.7 ×10⁻⁶ cm/s. The Papp B→A at 2 h, 10 µM in series [3] came to 51.9 ×10⁻⁶ cm/s. In addition, the Papp B→A at 2 h, 1 µM in series [4] was determined as 40.4 ×10⁻⁶ cm/s. This compound also returned a logP in series [5] of 1.65. Further, in series [6], the IC50 was more than 100 µM.
With `COc1ccc(Oc2cc([N+](=O)[O-])ccc2NS(C)(=O)=O)cc1`, the Papp A→B at 1 h, 10 µM in series [1] came out at 18.2 ×10⁻⁶ cm/s. Also, the Papp A→B at 1 h, 1 µM in series [2] turned out to be 8.3 ×10⁻⁶ cm/s. The Papp B→A at 2 h, 10 µM in series [3] was 3.1 ×10⁻⁶ cm/s. For the same compound, the Papp B→A at 2 h, 1 µM in series [4] is 6.8 ×10⁻⁶ cm/s. The logP in series [5] turned out to be 1.41. Moreover, in series [6], the concentration for half-maximal inhibition (IC50) was more than 100 µM.
Regarding `CS(=O)(=O)Nc1ccc([N+](=O)[O-])cc1Oc1ccccc1` [NIMESULIDE], the IC50 in series [6] was more than 100 µM.
